Measured values as given in patent publication US8426345B2, “Method of drug design” (Alchemia Limited, priority 2005, dated 2013).

Molecular target: T1, Human SST5 somatostatin receptor (Homo sapiens, UniProt P35346)
T1 construct: expressed in transfected cells; host or cells: HEK-293 EBNA cells (membranes)
Assay: Filter plate radio-ligand binding assay for SST5 receptor ([125I]SST-14 displacement)
Details: for % SST5 radio-ligand binding displaced at conc 0.25: conc 0.25 μM; for % SST5 radio-ligand binding displaced at conc 1.0: conc 1.0 μM; for % SST5 radio-ligand binding displaced at conc 0.5: conc 0.5 μM; for % SST5 radio-ligand binding displaced at conc 10: conc 10 μM

[1] = compound conc 50 μM, 2P library
[2] = compound conc 250 μM, 2P library
[3] = compound conc 500 μM, 2P library

T1 sequence (P35346 whole entry): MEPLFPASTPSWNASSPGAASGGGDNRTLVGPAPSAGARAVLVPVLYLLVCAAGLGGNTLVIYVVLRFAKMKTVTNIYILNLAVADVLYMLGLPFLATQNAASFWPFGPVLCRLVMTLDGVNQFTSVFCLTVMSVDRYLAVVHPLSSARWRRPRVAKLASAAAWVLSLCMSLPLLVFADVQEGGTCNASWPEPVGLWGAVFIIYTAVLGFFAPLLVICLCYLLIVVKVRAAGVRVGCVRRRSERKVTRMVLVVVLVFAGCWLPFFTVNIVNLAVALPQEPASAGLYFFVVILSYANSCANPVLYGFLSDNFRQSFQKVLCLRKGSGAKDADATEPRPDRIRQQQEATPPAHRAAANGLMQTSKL

| SMILES | % SST5 radio-ligand binding displaced at conc 0.25 (3P library) | % SST5 radio-ligand binding displaced at conc 1.0 (3P library) | also measured |
| --- | --- | --- | --- |
| COC[C@H]1O[C@@H](SC)[C@H](NC(=O)CCCN)[C@H](OCc2ccc3ccccc3c2)[C@@H]1O [Compound 58] |  |  | % SST5 radio-ligand binding displaced at conc 50 [1]: − (% SST5 radio-ligand binding displaced at cone (μM) −<40%); % SST5 radio-ligand binding displaced at conc 250 [2]: − (% SST5 radio-ligand binding displaced at cone (μM) −<40%); % SST5 radio-ligand binding displaced at conc 500 [3]: − (% SST5 radio-ligand binding displaced at cone (μM) −<40%) |
| COC[C@H]1O[C@H](OCc2ccc3ccccc3c2)[C@H](NC(=O)CCN)[C@H](OC)[C@@H]1O [Compound 59] |  |  | % SST5 radio-ligand binding displaced at conc 50 [1]: + (% SST5 radio-ligand binding displaced at cone (μM) 60>+>40%); % SST5 radio-ligand binding displaced at conc 250 [2]: ++ (% SST5 radio-ligand binding displaced at conc (μM) >60%); % SST5 radio-ligand binding displaced at conc 500 [3]: ++ (% SST5 radio-ligand binding displaced at conc (μM) >60%) |
| COC[C@H]1O[C@H](OCc2ccc3ccccc3c2)[C@H](NC(=O)CCN)[C@@H](OC)[C@@H]1O [Compound 60] |  |  | % SST5 radio-ligand binding displaced at conc 50 (conc 50 μM, 3P library): − (% SST5 radio-ligand binding displaced at cone (μM) −<40%); % SST5 radio-ligand binding displaced at conc 250 (conc 250 μM, 3P library): + (% SST5 radio-ligand binding displaced at cone (μM) 60>+>40%); % SST5 radio-ligand binding displaced at conc 500 (conc 500 μM, 3P library): ++ (% SST5 radio-ligand binding displaced at conc (μM) >60%) |
| COC[C@H]1O[C@@H](OCc2ccc3ccccc3c2)[C@H](NC(=O)CCN)[C@@H](OC)[C@@H]1O [Compound 61] |  |  | % SST5 radio-ligand binding displaced at conc 50 (conc 50 μM, 3P library): − (% SST5 radio-ligand binding displaced at cone (μM) −<40%); % SST5 radio-ligand binding displaced at conc 250 (conc 250 μM, 3P library): + (% SST5 radio-ligand binding displaced at cone (μM) 60>+>40%); % SST5 radio-ligand binding displaced at conc 500 (conc 500 μM, 3P library): ++ (% SST5 radio-ligand binding displaced at conc (μM) >60%) |
| COC[C@H]1O[C@@H](OCc2ccc3ccccc3c2)[C@H](NC(=O)CCN)[C@H](OC)[C@@H]1O [Compound 62] |  |  | % SST5 radio-ligand binding displaced at conc 50 (conc 50 μM, 3P library): − (% SST5 radio-ligand binding displaced at cone (μM) −<40%); % SST5 radio-ligand binding displaced at conc 250 (conc 250 μM, 3P library): ++ (% SST5 radio-ligand binding displaced at conc (μM) >60%); % SST5 radio-ligand binding displaced at conc 500 (conc 500 μM, 3P library): ++ (% SST5 radio-ligand binding displaced at conc (μM) >60%) |
| COC[C@H]1O[C@H](OCc2ccc3ccccc3c2)[C@H](NC(=O)CCN)[C@H](OC)[C@@H]1O [Compound 63] |  |  | % SST5 radio-ligand binding displaced at conc 50 (conc 50 μM, 3P library): + (% SST5 radio-ligand binding displaced at cone (μM) 60>+>40%); % SST5 radio-ligand binding displaced at conc 250 (conc 250 μM, 3P library): ++ (% SST5 radio-ligand binding displaced at conc (μM) >60%); % SST5 radio-ligand binding displaced at conc 500 (conc 500 μM, 3P library): ++ (% SST5 radio-ligand binding displaced at conc (μM) >60%) |
| NCCC(=O)NC1C(OCc2ccc3ccccc3c2)OC(COCc2ccc3ccccc3c2)C(O)C1OCc1ccc2ccccc2c1 (stereo not shown) [Compound 79] | − (% SST5 radio-ligand binding displaced at cone (μM) −<40%) | ++ (% SST5 radio-ligand binding displaced at conc (μM) >60%) |  |
| NCCC(=O)NC1C(OCc2ccc3ccccc3c2)OC(COCc2ccc3ccccc3c2)C(O)C1OCc1ccc2ccccc2c1 (stereo not shown) [Compound 80] | − (% SST5 radio-ligand binding displaced at cone (μM) −<40%) | ++ (% SST5 radio-ligand binding displaced at conc (μM) >60%) |  |
| NCCC(=O)NC1C(OCc2ccc3ccccc3c2)OC(COCc2ccccc2)C(O)C1OCc1ccc2ccccc2c1 (stereo not shown) [Compound 81] | − (% SST5 radio-ligand binding displaced at cone (μM) −<40%) | ++ (% SST5 radio-ligand binding displaced at conc (μM) >60%) |  |
| NCCC(=O)NC1C(OCc2ccc3ccccc3c2)OC(COCc2ccccc2)C(O)C1OCc1ccc2ccccc2c1 (stereo not shown) [Compound 82] | + (% SST5 radio-ligand binding displaced at cone (μM) 60>+>40%) | ++ (% SST5 radio-ligand binding displaced at conc (μM) >60%) |  |
| NCCC(=O)NC1C(OCc2ccc3ccccc3c2)OC(COCc2ccc(Cl)cc2)C(O)C1OCc1ccc2ccccc2c1 (stereo not shown) [Compound 83] | − (% SST5 radio-ligand binding displaced at cone (μM) −<40%) | ++ (% SST5 radio-ligand binding displaced at conc (μM) >60%) |  |
| NCCC(=O)NC1C(OCc2ccc3ccccc3c2)OC(COCc2ccc(Cl)cc2)C(O)C1OCc1ccc2ccccc2c1 (stereo not shown) [Compound 84] | − (% SST5 radio-ligand binding displaced at cone (μM) −<40%) | ++ (% SST5 radio-ligand binding displaced at conc (μM) >60%) |  |
| COC[C@H]1O[C@@H](OCc2ccc3ccccc3c2)[C@H](NC(=O)CCN)[C@H](OCc2ccc3ccccc3c2)[C@@H]1O [Compound 85] |  |  | % SST5 radio-ligand binding displaced at conc 0.5 (3P library): ++ (% SST5 radio-ligand binding displaced at conc (μM) >60%); % SST5 radio-ligand binding displaced at conc 10 (3P library): ++ (% SST5 radio-ligand binding displaced at conc (μM) >60%) |
| COC[C@H]1O[C@H](OCc2ccc3ccccc3c2)[C@H](NC(=O)CCN)[C@H](OCc2ccc3ccccc3c2)[C@@H]1O [Compound 86] |  |  | % SST5 radio-ligand binding displaced at conc 0.5 (3P library): ++ (% SST5 radio-ligand binding displaced at conc (μM) >60%); % SST5 radio-ligand binding displaced at conc 10 (3P library): ++ (% SST5 radio-ligand binding displaced at conc (μM) >60%) |
| COC[C@H]1O[C@H](OCc2ccc3ccccc3c2)[C@H](NC(=O)CCN)[C@@H](OCc2ccc3ccccc3c2)[C@@H]1O [Compound 98] | + (% SST5 radio-ligand binding displaced at cone (μM) 60>+>40%) | ++ (% SST5 radio-ligand binding displaced at conc (μM) >60%) |  |
| COC[C@H]1O[C@H](OCc2ccc3ccccc3c2)[C@H](NC(=O)C(C)CN)[C@@H](OCc2ccc3ccccc3c2)[C@@H]1O (stereo partly shown) [Compound 99] | − (% SST5 radio-ligand binding displaced at cone (μM) −<40%) | + (% SST5 radio-ligand binding displaced at cone (μM) 60>+>40%) |  |
| COC[C@H]1O[C@H](OCc2ccc3ccccc3c2)[C@H](NC(=O)CC(C)N)[C@@H](OCc2ccc3ccccc3c2)[C@@H]1O (stereo partly shown) [Compound 100] | + (% SST5 radio-ligand binding displaced at cone (μM) 60>+>40%) | ++ (% SST5 radio-ligand binding displaced at conc (μM) >60%) |  |
| COC[C@H]1O[C@H](OCc2ccc3ccccc3c2)[C@H](NC(=O)C2CNC2)[C@@H](OCc2ccc3ccccc3c2)[C@@H]1O [Compound 101] | − (% SST5 radio-ligand binding displaced at cone (μM) −<40%) | + (% SST5 radio-ligand binding displaced at cone (μM) 60>+>40%) |  |
| COC[C@H]1O[C@H](OCc2ccc3ccccc3c2)[C@H](NC(=O)CCN2CCCCC2)[C@@H](OCc2ccc3ccccc3c2)[C@@H]1O [Compound 102] | − (% SST5 radio-ligand binding displaced at cone (μM) −<40%) | − (% SST5 radio-ligand binding displaced at cone (μM) −<40%) |  |
| COC[C@H]1O[C@H](OCc2ccc3ccccc3c2)[C@H](NC(=O)C2CCCNC2)[C@@H](OCc2ccc3ccccc3c2)[C@@H]1O (stereo partly shown) [Compound 103] | + (% SST5 radio-ligand binding displaced at cone (μM) 60>+>40%) | ++ (% SST5 radio-ligand binding displaced at conc (μM) >60%) |  |
| COCC1OC(OCc2ccc3ccccc3c2)C(NC(=O)C2CCCCC2N)C(OCc2ccc3ccccc3c2)C1O (stereo not shown) [Compound 104] | − (% SST5 radio-ligand binding displaced at cone (μM) −<40%) | − (% SST5 radio-ligand binding displaced at cone (μM) −<40%) |  |
| COCC1OC(OCc2ccc3ccccc3c2)C(NC(=O)C2CCCCC2N)C(OCc2ccc3ccccc3c2)C1O (stereo not shown) [Compound 105] | − (% SST5 radio-ligand binding displaced at cone (μM) −<40%) | − (% SST5 radio-ligand binding displaced at cone (μM) −<40%) |  |
| COC[C@H]1O[C@H](OCc2ccc3ccccc3c2)[C@H](NC(=O)CCN(C)C)[C@@H](OCc2ccc3ccccc3c2)[C@@H]1O [Compound 106] | − (% SST5 radio-ligand binding displaced at cone (μM) −<40%) | − (% SST5 radio-ligand binding displaced at cone (μM) −<40%) |  |
| COC[C@H]1O[C@H](OCc2ccc3ccccc3c2)[C@H](NC(=O)CCN)[C@@H](OCc2cccc(Cl)c2)[C@@H]1O [Compound 107] | ++ (% SST5 radio-ligand binding displaced at conc (μM) >60%) | ++ (% SST5 radio-ligand binding displaced at conc (μM) >60%) |  |
| COC[C@H]1O[C@H](OCc2ccc3ccccc3c2)[C@H](NC(=O)CCN)[C@@H](OCc2cc(Cl)ccc2Cl)[C@@H]1O [Compound 108] | + (% SST5 radio-ligand binding displaced at cone (μM) 60>+>40%) | ++ (% SST5 radio-ligand binding displaced at conc (μM) >60%) |  |
| COC[C@H]1O[C@H](OCc2ccc3ccccc3c2)[C@H](NC(=O)CCN)[C@@H](OCc2ccccc2Cl)[C@@H]1O [Compound 109] | − (% SST5 radio-ligand binding displaced at cone (μM) −<40%) | ++ (% SST5 radio-ligand binding displaced at conc (μM) >60%) |  |
| COC[C@H]1O[C@H](OCc2ccc3ccccc3c2)[C@H](NC(=O)CCN)[C@@H](OCc2cccc3cccnc23)[C@@H]1O [Compound 110] | ++ (% SST5 radio-ligand binding displaced at conc (μM) >60%) | ++ (% SST5 radio-ligand binding displaced at conc (μM) >60%) |  |
| COC[C@H]1O[C@H](OCc2ccc3ccccc3c2)[C@H](NC(=O)CCN)[C@@H](OCc2nc3ccccc3s2)[C@@H]1O [Compound 111] | − (% SST5 radio-ligand binding displaced at cone (μM) −<40%) | − (% SST5 radio-ligand binding displaced at cone (μM) −<40%) |  |
| COC[C@H]1O[C@H](OCc2ccc3ccccc3c2)[C@H](NC(=O)CCN)[C@@H](OCc2nccc3ccccc23)[C@@H]1O [Compound 112] | + (% SST5 radio-ligand binding displaced at cone (μM) 60>+>40%) | ++ (% SST5 radio-ligand binding displaced at conc (μM) >60%) |  |
